Converted amounts (≈) assume the structure as drawn. “And” between values parts separate entries of the source, which are not always exact repeats. Identical values can stand only once. Like-named read-outs stand apart in the source and are kept apart here.
Tests used:
HeLa-ACE2 cells = conditions: for perc_max_measured: highest measured response of the dose series; for perc_min_measured: lowest measured response of the dose series
[1] = Hepatic microsomal stability, MLM; assay type: in vitro ADME
LogD = conditions: pH 7.4; In vitro LogD
[2] = Hepatic microsomal stability, HLM; assay type: in vitro ADME, human; conditions: In vitro human liver microsomal stability; for perc_remaining_no_cofactor: no cofactor
[3] = Permeability Papp (AB) MDR1/MDCKII; conditions: In vitro MDR1-MDCKII permeability; for papp_a_to_b_mean: A to B; for perc_recovery_a_to_b_mean: recovery A to B
[4] = In vitro kinetic solubility; conditions: In vitro kinetic solubility, ph 7.4
in vitro = conditions: human, hela-ace2 cells, 50.0
[5] = test system: SARS-CoV-2, isolate USA-WA1/2020; test: microbe, parasite or virus in culture; assay type: cell-based; conditions: HeLa-ACE2 SARS-CoV-2 antiviral effect without P-gp inhibitor; for perc_max_measured: maximum measured response of dose series; for perc_min_measured: minimum measured response of dose series; for EC50: read-out: ec50; for EC90: read-out: ec90
[6] = In vitro mouse liver microsomal stability
[7] = In vitro mouse liver microsomal stability, no cofactor
[8] = In vitro mouse liver microsomal stability; no cofactor
[9] = protocol HeLa-ACE2 cytotoxicity

SMILES	CC50 (HeLa-ACE2 cells; HeLa-ACE2 cytotoxicity) [µM]	cc10 (HeLa-ACE2 cells; HeLa-ACE2 cytotoxicity) [µM]	perc_max_measured (HeLa-ACE2 cells; HeLa-ACE2 cytotoxicity) [%]	perc_min_measured (HeLa-ACE2 cells; HeLa-ACE2 cytotoxicity) [%]	clint [1, 6] [µL/min/mg]	perc_remaining [1, 6] [%]	t_half [1, 6] [min]	perc_remaining_no_cofactor [1, 7] [%]	logd (LogD)	clint [2] [µL/min/mg]	perc_remaining [2] [%]	t_half [2] [min]	perc_remaining_no_cofactor [2] [%]	papp_a_to_b_mean ([3]; mean) [×10⁻⁶ cm/s]	solubility_mean [4] [µM]	CC50 at 24 h (in vitro) [µM]	perc_max_measured [5]	perc_min_measured [5]	EC50 [5] [µM]	EC90 [5] [µM]	other results
CCNC(=O)c1cc2c(N[C@@H](c3ccc4c(c3)S(=O)(=O)NCC4)C(C)C)ncnc2[nH]1 [ASAP-0011076]	> 20	> 20.0	99.412	92.285	45.0	49.0	36.8	101.0	2.6	85.0	24.0	19.7	107.0	1.96	344 (≈ 152 µg/mL)	> 20	101.15%	78.382%	> 20	> 20	perc_recovery_a_to_b_mean ([3]; mean): 97.7%
CC(C)[C@@H](Nc1ncnc2[nH]c(-c3cnn(C)c3)cc12)c1ccc2c(c1)S(=O)(=O)NCC2 [ASAP-0011192]	> 20	> 20.0	100.208	90.498	87.0	23.0	19.1	92.0	3.2	120.0	13.0	13.9	98.0	1.58	105 (≈ 47.4 µg/mL)	> 20	105.419%	69.993%	> 20	> 20	perc_recovery_a_to_b_mean ([3]; mean): 93.2%
CC(C)[C@@H](Nc1ncnc2[nH]ccc12)c1ccc2c(c1)S(=O)(=O)CCO2 [ASAP-0012318]	> 20	> 20.0	106.826	90.526	69.0	33.0	24.2	111.0	2.6	18.0	74.0	91.3	92.0		372 (≈ 139 µg/mL)	> 20	99.283%	83.757%	> 20	> 20	papp_a_to_b_mean ([3]; no inhibitor): 4.4 ×10⁻⁶ cm/s; perc_recovery_a_to_b_mean ([3]; no inhibitor): 69.0%
CC(C)[C@H](Nc1ncnc2[nH]c(-c3cnn(C)c3C#N)cc12)c1ccc2c(c1)NC(=O)CO2 (single isomer, unassigned) [ASAP-0013255]	> 20	> 20.0	92.424	38.485	81.0	27.0	20.7	96.0	4.4	115.0	16.0	14.6	101.0	1.22	26 (≈ 11.5 µg/mL)	> 20	72.17%	6.652%	1.33	> 20	perc_recovery_a_to_b_mean ([3]; mean): 51.1%
CC(C)[C@@H](Nc1ncnc2[nH]c(-c3cnn(CC(=O)N(C)C)c3)cc12)c1ccc2c(c1)S(=O)(=O)CCC2 (racemic) [ASAP-0008668]	> 20	> 20.0	99.837	68.704	68.0	31.0	24.6		2.1	106.0	18.0	15.8	92.0	0.67	38 (≈ 19.8 µg/mL)	> 20	98.615%	84.991%	> 20	> 20	perc_remaining_no_cofactor [1, 8]: 92.0%; perc_recovery_a_to_b_mean ([3]; mean): 85.0%
CC(C)[C@@H](Nc1ncnc2[nH]c(-c3ccc4nnn(C)c4c3)cc12)c1ccc2c(c1)S(=O)(=O)CCC2 [ASAP-0011201]	> 20	> 20.0	106.149	70.638	219.0	3.0	7.6	93.0	3.4	752.0	0.0	2.2	93.0		6 (≈ 3.01 µg/mL)	> 20	110.665%	33.895%	3.64	> 20	papp_a_to_b_mean ([3]; no inhibitor): 0.827 ×10⁻⁶ cm/s; perc_recovery_a_to_b_mean ([3]; no inhibitor): 53.6%
CC(C)[C@H](Nc1ncnc2[nH]c(-c3cnn(C)c3)cc12)c1ccc2c(c1)S(=O)(=O)CCC2 (single isomer, unassigned) [ASAP-0012327]	> 20	> 20.0	100.334	94.258	255.0	1.0	6.5	98.0	2.9	169.0	7.0	9.9	95.0		111 (≈ 50 µg/mL)	> 20	111.115%	52.798%	> 20	> 20	papp_a_to_b_mean ([3]; no inhibitor): 1.18 ×10⁻⁶ cm/s; perc_recovery_a_to_b_mean ([3]; no inhibitor): 65.0%
CC(C)[C@@H](Nc1ncnc2[nH]c(-c3cnn(CC(=O)N(C)C)c3)cc12)c1ccc2c(c1)OCCO2 [ASAP-0008485]					59.0	39.0	28.1		2.3	142.0	9.0	11.8	110.0	1.15	210 (≈ 99.9 µg/mL)	> 20	120.313% and 102.904%	86.961% and 72.697%	> 20	> 20	CC50 (HeLa-ACE2 cells; [9]): > 20 µM; cc10 (HeLa-ACE2 cells; [9]): > 20.0 µM; perc_max_measured (HeLa-ACE2 cells; [9]): 96.628% and 85.957%; perc_min_measured (HeLa-ACE2 cells; [9]): 73.752% and 75.897%; perc_remaining_no_cofactor [1, 8]: 98.0%; perc_recovery_a_to_b_mean ([3]; mean): 80.8%
